{
  "source": "PubChem BioAssay AID504779",
  "about": "(National Center for Advancing Translational Sciences (NCATS), 2011)",
  "tested_on": "Caco-2 bidirectional permeability, LC-MS/MS efflux ratio",
  "test": "Enhancers of SMN2 Splice Variant Expression: Efflux Ratio Profiling",
  "details": "stronger effect = lower value",
  "text": "Spinal muscular atrophy (SMA) is caused by insufficient levels of the survival motor neuron protein SMN. The SMN locus on chromosome 5q13 contains two inverted copies of SMN called SMN1 and SMN2 which are 99% identical at the amino acid level. SMN1 is a fully functional protein and SMN2 skips exon 7 90% of the time. Skipping of exon 7 produces non-functional protein product. 10% of the SMN2 protein includes exon 7 and is fully functional. In the SMA disease state, mutations in the SMN1 locus are the cause of the disease state. Because only 10% of SMN2 is of the fully functional form, it is not sufficient to overcome the deficiency produced by the loss of the SMN1 product. A therapy that either increase the amount of SMN2 product made or to increase the inclusion of exon 7 has been proposed for the treatment of SMA. After screening and medicinal chemistry efforts a probe was identified and is further characterized in this in vitro ADME assay. This bioassays provides profiling data on Caco-2 cell permeability of leads compounds developed for the HPGD project. […]\nPrepare 1M HEPES: add 23.83g HEPES to 100ml of 0.85% NaCl Prepare HBSS+ buffer: add 12.8ml of 1M HEPES in 0.85% NaCl to 500ml HBSS buffer. […] The T0, LY and T90, LY plates are read by FlexStation 3 at excitation of 485 nm and emission of 535 nm to determine LY permeability. […]",
  "data": [
    {"smiles": "O=C(O)C1CCN(c2nc(-c3ccc(Br)cc3)cs2)CC1", "values": [
      {"measurement": "efflux ratio", "value": 0.4}
    ]}
  ]
}
